The target of the experiment is T1, TNF-α (Homo sapiens, UniProt P01375).
T1 construct: purchased R&D 210-TA-020/CF
In words: TNF-α Induced HEK Blue Cellular Assay (secreted alkaline phosphatase expression, QUANTI-Blue). The format is cell-based. To be noted: HEK Blue TNFα reporter cells, TNF-α 100 μg/ml, 24 hrs at 37° C., inhibition of secreted alkaline phosphatase. The method, boiled down: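 Compound was serially diluted from […] to 0.5 nM final, then incubated with 10,000 HEK Blue TNFα reporter cells per well and […] TNF-α for 24 h at 37° C. SEAP output was read by QUANTI-Blue absorbance at 620 nm. Inhibition was background-corrected against DMSO controls with and without stimulation, and IC50 was fitted with a 4-parameter logistic equation.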

Molecules are shown by their SMILES. Like-named read-outs stand apart in the source and are kept apart here. A value given as a limit tells only on which side of the number the result lay.

T1 sequence (P01375 77-233 limits assumed): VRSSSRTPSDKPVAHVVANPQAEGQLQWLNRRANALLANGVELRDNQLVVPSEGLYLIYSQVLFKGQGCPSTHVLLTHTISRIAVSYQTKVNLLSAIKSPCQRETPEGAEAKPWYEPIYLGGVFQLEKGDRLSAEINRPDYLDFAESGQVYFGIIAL

For the compound `[2H]C([2H])([2H])N1C(=O)c2cccc(OC(F)F)c2[C@H]2C[C@@H]1c1nc3ccc(C#CC(C)(C)N)cc3n12` [Example 64, (7R,14R)-11-(3-amino-3-methylbut-1-yn-1-yl)-1-(difluoromethoxy)-6-(methyl-d3)-6,7-dihydro-7,14-methanobenzo[f]benzo[4,5]imidazo[1,2-a][1,4]diazocin-5(14H)-one], the IC50 (read-out: IC50 value) was in the range of 10 to 30 µM.

Regarding `[2H]C([2H])([2H])N1C(=O)c2cccc(OC(F)F)c2[C@H]2C[C@@H]1c1nc3ccc(C#CCNCC)cc3n12` [Example 65, (7R,14R)-1-(difluoromethoxy)-11-(3-(ethylamino)prop-1-yn-1-yl)-6-(methyl-d3)-6,7-dihydro-7,14-methanobenzo[f]benzo[4,5]imidazo[1,2-a][1,4]diazocin-5(14H)-one], for the setting “read-out: IC50 value”, the IC50 was 10 to 30 µM. The same measure, in the same setting: the same measure for `[2H]C([2H])([2H])N1C(=O)c2cccc(OC(F)F)c2[C@H]2C[C@@H]1c1nc3ccc(C#CCNC(C)C)cc3n12` [Example 66, (7R,14R)-1-(difluoromethoxy)-11-(3-(isopropylamino)prop-1-yn-1-yl)-6-(methyl-d3)-6,7-dihydro-7,14-methanobenzo[f]benzo[4,5]imidazo[1,2-a][1,4]diazocin-5(14H)-one]: 0.1 to 1 µM; for `[2H]C([2H])([2H])N1C(=O)c2cccc(OC(F)F)c2[C@H]2C[C@@H]1c1nc3ccc(C#CCN(C)CC)cc3n12` [Example 67, (7R,14R)-1-(difluoromethoxy)-11-(3-(ethyl(methyl)amino)prop-1-yn-1-yl)-6-(methyl-d3)-6,7-dihydro-7,14-methanobenzo[f]benzo[4,5]imidazo[1,2-a][1,4]diazocin-5(14H)-one]: 0.1 to 1 µM; for `[2H]C([2H])([2H])N1C(=O)c2cccc(OC(F)F)c2[C@H]2C[C@@H]1c1nc3ccc(C#CC4CN(C)C4)cc3n12` [Example 68, (7R,14R)-1-(difluoromethoxy)-6-(methyl-d3)-11-((1-methylazetidin-3-yl)ethynyl)-6,7-dihydro-7,14-methanobenzo[f]benzo[4,5]imidazo[1,2-a][1,4]diazocin-5(14H)-one]: < 0.1 µM. On to `[2H]C([2H])([2H])N1C(=O)c2cccc(OC(F)F)c2[C@H]2C[C@@H]1c1nc3ccc(C#CC4CNC4)cc3n12` [Example 69, (7R,14R)-11-(azetidin-3-ylethynyl)-1-(difluoromethoxy)-6-(methyl-d3)-6,7-dihydro-7,14-methanobenzo[f]benzo[4,5]imidazo[1,2-a][1,4]diazocin-5(14H)-one], for which the IC50 (read-out: IC50 value) was in the range of 0.1 to 1 µM. On the same count and under the same terms, next, `[2H]C([2H])([2H])N1C(=O)c2cccc(OC(F)F)c2[C@H]2C[C@@H]1c1nc3ccc(C#CCNC(C)(C)C)cc3n12` [Example 70, (7R,14R)-11-(3-(tert-butylamino)prop-1-yn-1-yl)-1-(difluoromethoxy)-6-(methyl-d3)-6,7-dihydro-7,14-methanobenzo[f]benzo[4,5]imidazo[1,2-a][1,4]diazocin-5(14H)-one]: 10 to 30 µM; `[2H]C([2H])([2H])N1C(=O)c2cccc(OC(F)F)c2[C@H]2C[C@@H]1c1nc3ccc(C#CC4CCNC4)cc3n12` (stereo partly drawn) [Example 71, (7R,14R)-1-(difluoromethoxy)-6-(methyl-d3)-11-(pyrrolidin-3-ylethynyl)-6,7-dihydro-7,14-methanobenzo[f]benzo[4,5]imidazo[1,2-a][1,4]diazocin-5(14H)-one]: 0.1 to 1 µM; `[2H]C([2H])([2H])N1C(=O)c2cccc(OC(F)F)c2[C@H]2C[C@@H]1c1nc3ccc(C#CCOC(C)CO)cc3n12` (stereo partly drawn) [Example 72, (7R,14R)-1-(difluoromethoxy)-11-(3-((1-hydroxypropan-2-yl)oxy)prop-1-yn-1-yl)-6-(methyl-d3)-6,7-dihydro-7,14-methanobenzo[f]benzo[4,5]imidazo[1,2-a][1,4]diazocin-5(14H)-one]: < 0.1 µM.

For `[2H]C([2H])([2H])N1C(=O)c2cccc(OC(F)F)c2[C@H]2C[C@@H]1c1nc3ccc(C#CCOCC(C)O)cc3n12` (stereo partly drawn) [Example 73, (7R,14R)-1-(difluoromethoxy)-11-(3-(2-hydroxypropoxy)prop-1-yn-1-yl)-6-(methyl-d3)-6,7-dihydro-7,14-methanobenzo[f]benzo[4,5]imidazo[1,2-a][1,4]diazocin-5(14H)-one], the IC50 (read-out: IC50 value) was < 0.1 µM. On the same count and under the same terms, the same measure for `[2H]C([2H])([2H])N1C(=O)c2cccc(OC(F)F)c2[C@H]2C[C@@H]1c1nc3ccc(C#CCOC(C)C)cc3n12` [Example 74, (7R,14R)-1-(difluoromethoxy)-11-(3-isopropoxyprop-1-yn-1-yl)-6-(methyl-d3)-6,7-dihydro-7,14-methanobenzo[f]benzo[4,5]imidazo[1,2-a][1,4]diazocin-5(14H)-one]: < 0.1 µM; for `[2H]C([2H])([2H])N1C(=O)c2cccc(OC(F)F)c2[C@H]2C[C@@H]1c1nc3ccc(C#CC(C)C)cc3n12` [Example 75, (7R,14R)-1-(difluoromethoxy)-6-(methyl-d3)-11-(3-methylbut-1-yn-1-yl)-6,7-dihydro-7,14-methanobenzo[f]benzo[4,5]imidazo[1,2-a][1,4]diazocin-5(14H)-one]: 0.1 to 1 µM; for `[2H]C([2H])([2H])N1C(=O)c2cccc(OC(F)F)c2[C@H]2C[C@@H]1c1nc3ccc(C#CC4CCN(C)C4)cc3n12` (stereo partly drawn) [Example 76, (7R,14R)-1-(difluoromethoxy)-6-(methyl-d3)-11-((1-methylpyrrolidin-3-yl)ethynyl)-6,7-dihydro-7,14-methanobenzo[f]benzo[4,5]imidazo[1,2-a][1,4]diazocin-5(14H)-one]: < 0.1 µM. On to `[2H]C([2H])([2H])N1C(=O)c2cccc(OC(F)F)c2[C@H]2C[C@@H]1c1nc3ccc(C#CCCOC)cc3n12` [Example 77, (7R,14R)-1-(difluoromethoxy)-11-(4-methoxybut-1-yn-1-yl)-6-(methyl-d3)-6,7-dihydro-7,14-methanobenzo[f]benzo[4,5]imidazo[1,2-a][1,4]diazocin-5(14H)-one], for which the IC50 (read-out: IC50 value) was < 0.1 µM. The same measure, in the same setting: the same measure for `[2H]C([2H])([2H])N1C(=O)c2cccc(OC(F)F)c2[C@H]2C[C@@H]1c1nc3ccc(C#CC(C)OCC)cc3n12` (stereo partly drawn) [Example 78, (7R,14R)-1-(difluoromethoxy)-11-(3-ethoxybut-1-yn-1-yl)-6-(methyl-d3)-6,7-dihydro-7,14-methanobenzo[f]benzo[4,5]imidazo[1,2-a][1,4]diazocin-5(14H)-one]: 0.1 to 1 µM. As for `[2H]C([2H])([2H])N1C(=O)c2cccc(OC(F)F)c2[C@H]2C[C@@H]1c1nc3ccc(C#CCOc4ccccc4)cc3n12` [Example 79, (7R,14R)-1-(difluoromethoxy)-6-(methyl-d3)-11-(3-phenoxyprop-1-yn-1-yl)-6,7-dihydro-7,14-methanobenzo[f]benzo[4,5]imidazo[1,2-a][1,4]diazocin-5(14H)-one], the IC50 (read-out: IC50 value) is 0.1 to 1 µM. Same read-out and setting: the same measure for `[2H]C([2H])([2H])N1C(=O)c2cccc(OC(F)F)c2[C@H]2C[C@@H]1c1nc3ccc(C#CC4COC4)cc3n12` [Example 80, (7R,14R)-1-(difluoromethoxy)-6-(methyl-d3)-11-(oxetan-3-ylethynyl)-6,7-dihydro-7,14-methanobenzo[f]benzo[4,5]imidazo[1,2-a][1,4]diazocin-5(14H)-one]: < 0.1 µM; for `[2H]C([2H])([2H])N1C(=O)c2cccc(OC(F)F)c2[C@H]2C[C@@H]1c1nc3ccc(C#CCC4(O)COC4)cc3n12` [Example 81, (7R,14R)-1-(difluoromethoxy)-11-(3-(3-hydroxyoxetan-3-yl)prop-1-yn-1-yl)-6-(methyl-d3)-6,7-dihydro-7,14-methanobenzo[f]benzo[4,5]imidazo[1,2-a][1,4]diazocin-5(14H)-one]: 0.1 to 1 µM. Same read-out and setting: next, `[2H]C([2H])([2H])N1C(=O)c2cccc(OC(F)F)c2[C@H]2C[C@@H]1c1nc3ccc(C#CCC(C)(C)O)cc3n12` [Example 82, (7R,14R)-1-(difluoromethoxy)-11-(4-hydroxy-4-methylpent-1-yn-1-yl)-6-(methyl-d3)-6,7-dihydro-7,14-methanobenzo[f]benzo[4,5]imidazo[1,2-a][1,4]diazocin-5(14H)-one]: 10 to 30 µM; `[2H]C([2H])([2H])N1C(=O)c2cccc(OC(F)F)c2[C@H]2C[C@@H]1c1nc3ccc(C#CCCCO)cc3n12` [Example 83, (7R,14R)-1-(difluoromethoxy)-11-(5-hydroxypent-1-yn-1-yl)-6-(methyl-d3)-6,7-dihydro-7,14-methanobenzo[f]benzo[4,5]imidazo[1,2-a][1,4]diazocin-5(14H)-one]: < 0.1 µM. Regarding `[2H]C([2H])([2H])N1C(=O)c2cccc(OC(F)F)c2[C@H]2C[C@@H]1c1nc3ccc(C#CCC)cc3n12` [Example 84, (7R,14R)-11-(but-1-yn-1-yl)-1-(difluoromethoxy)-6-(methyl-d3)-6,7-dihydro-7,14-methanobenzo[f]benzo[4,5]imidazo[1,2-a][1,4]diazocin-5(14H)-one], the IC50 (IC50 value) is < 0.1 µM.

Regarding `[2H]C([2H])([2H])N1C(=O)c2cccc(OC(F)F)c2[C@H]2C[C@@H]1c1nc3ccc(C#CC4CC4)cc3n12` [Example 85, (7R,14R)-11-(cyclopropylethynyl)-1-(difluoromethoxy)-6-(methyl-d3)-6,7-dihydro-7,14-methanobenzo[f]benzo[4,5]imidazo[1,2-a][1,4]diazocin-5(14H)-one], the concentration for half-maximal inhibition (IC50) (read-out: IC50 value) is < 0.1 µM.

As to `[2H]C([2H])([2H])N1C(=O)c2cccc(OC(F)F)c2[C@H]2C[C@@H]1c1nc3ccc(C#CCCCC#N)cc3n12` [Example 86, 6-((7R,14R)-1-(difluoromethoxy)-6-(methyl-d3)-5-oxo-5,6,7,14-tetrahydro-7,14-methanobenzo[f]benzo[4,5]imidazo[1,2-a][1,4]diazocin-11-yl)hex-5-ynenitrile], where the note is “read-out: IC50 value”, the 50% inhibitory concentration (IC50) is < 0.1 µM.

Source of the values: patent publication US20260365682A1, “MODULATORS OF TNF-ALPHA ACTIVITY” (Forward Therapeutics, Inc., priority 2022, published 2026).
